From publication PMC11698746 (Scientific Reports, 2025)
Like-named read-outs stand apart in the source and are kept apart here.

Tests used:
[1] = Transport of flavonoids in HLF across Caco-2 cell monolayer; type: in vitro ADME; conditions: human, Caco-2, Papp, Caco-2, range over HLF 50, 100 and 200 µg·mL^−1
[2] = test system: intestinal microflora; experiment: Metabolism of HLF by intestinal microflora; type: in vitro ADME, rat; conditions: anaerobic incubation 37 °C, up to 48 h
[3] = Pharmacokinetics of HLF via oral administration; type: in vivo, rat; conditions: after intragastric administration of HLF
[4] = cited from earlier work
[5] = test system: rat intestine; type: in vivo; conditions: for detection in the effluent fluid: rat single-pass intestinal perfusion after HLF via jugular vein
[6] = test system: rat small intestine; experiment: In situ recirculating intestinal perfusion; type: in vivo; conditions: different concentrations of HLF
[7] = In situ recirculating intestinal perfusion; type: in vivo; conditions: rat, other: in situ recirculating intestinal perfusion, absorption potential (Papp), rat small intestine, different concentrations of HLF

| Papp [1] [×10⁻⁶ cm/s] | metabolism by the intestinal microflora [2] | detection in the rat plasma and bile [3] | detection in the effluent fluid [5] | absorption extent (A) [6] [%·h^−1] | absorption potential (Papp) [6] | Papp at 3 h [7] [×10⁻⁶ cm/s] | reduction of cumulative efflux amount ([5]; in the presence of VP vs absence) [%] | SMILES | Papp ([4]; previous study) | Papp ([4]; other study) |
| --- | --- | --- | --- | --- | --- | --- | --- | --- | --- | --- |
| 0.226 to 0.383 | metabolized to QUE | cannot be detected | hardly detected | 11.40 ± 0.98 | 4.27 ± 0.36 ×10^−7 cm·sec^−1 | 0.255 to 0.427 |  | O=c1c(O[C@@H]2O[C@H](CO)[C@H](O)[C@H](O)[C@H]2O)c(-c2ccc(O)c(O)c2)oc2cc(O)cc(O)c12 [HP, hyperoside] | 1.87 ± 1.11 ×10^−7 cm·sec^−1 |  |
| 0.228 to 0.304 | metabolized to QUE | cannot be detected | hardly detected |  |  | 0.031 to 0.141 |  | C[C@@H]1O[C@@H](OC[C@H]2O[C@@H](Oc3c(-c4ccc(O)c(O)c4)oc4cc(O)cc(O)c4c3=O)[C@H](O)[C@@H](O)[C@@H]2O)[C@H](O)[C@H](O)[C@H]1O [RUT, rutin] |  | 1.03 ± 0.13 ×10^−5 cm·sec^−1 |
| 0.218 to 0.383 |  | cannot be detected | detected |  |  | 0.031 to 0.141 | 47.63 | O=c1cc(-c2ccc(O)cc2)oc2c([C@@H]3O[C@H](CO)[C@@H](O)[C@H](O)[C@H]3O)c(O)cc(O)c12 [VIT, vitexin] |  |  |
